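Cells were grown in 96-well plates and exposed to each compound for 48 hours at five concentrations; endpoints were interpolated linearly between bracketing concentrations, or set to the highest concentration if not reached. At the GI50, growth is halved. TGI denotes the concentration required for complete inhibition of growth.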
Key:
Test in all cases: NCI anticancer screen, dose series, 48 h
786-0 renal = test system: 786-0 renal
A498 renal = test system: A498 renal
A549 NSCLC = test system: A549 NSCLC
BT-549 breast = test system: BT-549 breast
CAKI-1 renal = test system: CAKI-1 renal
CCRF-CEM leukemia = test system: CCRF-CEM leukemia
COLO 205 colon = test system: COLO 205 colon
DU-145 prostate = test system: DU-145 prostate
EKVX NSCLC = test system: EKVX NSCLC
HCC-2998 colon = test system: HCC-2998 colon
HCT-116 colon = test system: HCT-116 colon
HCT-15 colon = test system: HCT-15 colon
HL-60(TB) leukemia = test system: HL-60(TB) leukemia
HOP-62 NSCLC = test system: HOP-62 NSCLC
HOP-92 NSCLC = test system: HOP-92 NSCLC
HS 578T breast = test system: HS 578T breast
HT29 colon = test system: HT29 colon
IGROV1 ovarian = test system: IGROV1 ovarian
K-562 leukemia = test system: K-562 leukemia
KM12 colon = test system: KM12 colon
M14 melanoma = test system: M14 melanoma
MALME-3M melanoma = test system: MALME-3M melanoma
MCF7 breast = test system: MCF7 breast
MDA-MB-231 breast = test system: MDA-MB-231 breast
MDA-MB-435 = test system: MDA-MB-435
MOLT-4 leukemia = test system: MOLT-4 leukemia
NCI-H226 lung = test system: NCI-H226 lung
NCI-H23 lung = test system: NCI-H23 lung
NCI-H460 lung = test system: NCI-H460 lung
NCI-H522 lung = test system: NCI-H522 lung
NCI/ADR-RES ovarian = test system: NCI/ADR-RES ovarian
OVCAR-4 ovarian = test system: OVCAR-4 ovarian
OVCAR-5 ovarian = test system: OVCAR-5 ovarian
OVCAR-8 ovarian = test system: OVCAR-8 ovarian
PC-3 prostate = test system: PC-3 prostate
RXF 393 renal = test system: RXF 393 renal
SF-268 CNS = test system: SF-268 CNS
SF-539 CNS = test system: SF-539 CNS
SK-MEL-2 melanoma = test system: SK-MEL-2 melanoma
SK-MEL-28 melanoma = test system: SK-MEL-28 melanoma
SK-MEL-5 melanoma = test system: SK-MEL-5 melanoma
SK-OV-3 ovarian = test system: SK-OV-3 ovarian
SN12C renal = test system: SN12C renal
SNB-19 CNS = test system: SNB-19 CNS
SNB-75 CNS = test system: SNB-75 CNS
SR leukemia = test system: SR leukemia
SW-620 colon = test system: SW-620 colon
T-47D breast = test system: T-47D breast
TK-10 renal = test system: TK-10 renal
U251 CNS = test system: U251 CNS
UACC-257 melanoma = test system: UACC-257 melanoma
UACC-62 melanoma = test system: UACC-62 melanoma
UO-31 renal = test system: UO-31 renal

C#CCNC1CCC(c2csc(C#C)n2)=C1C (stereo unspecified)
GI50 (786-0 renal): 0.195 µM | TGI (786-0 renal): 0.368 µM | GI50 (A498 renal): 3.9 µM | TGI (A498 renal): 17.6 µM | GI50 (A549 NSCLC): 10.3 µM | TGI (A549 NSCLC): > 100 µM | GI50 (BT-549 breast): 1.8 µM | TGI (BT-549 breast): 3.58 µM | GI50 (CAKI-1 renal): 2.11 µM | TGI (CAKI-1 renal): 11.5 µM | GI50 (CCRF-CEM leukemia): 0.922 µM | TGI (CCRF-CEM leukemia): 4.94 µM | GI50 (COLO 205 colon): 17.1 µM | TGI (COLO 205 colon): 39.1 µM | GI50 (DU-145 prostate): 5.97 µM | TGI (DU-145 prostate): > 100 µM | GI50 (EKVX NSCLC): 2.51 µM | TGI (EKVX NSCLC): 46.9 µM | GI50 (HCC-2998 colon): 13.3 µM | TGI (HCC-2998 colon): 28.6 µM | GI50 (HCT-116 colon): 4.79 µM | TGI (HCT-116 colon): 70.1 µM | GI50 (HCT-15 colon): 6.66 µM | TGI (HCT-15 colon): 22.7 µM | GI50 (HL-60(TB) leukemia): 2.3 µM | TGI (HL-60(TB) leukemia): 5.29 µM | GI50 (HOP-62 NSCLC): 1.89 µM | TGI (HOP-62 NSCLC): 4.98 µM | GI50 (HOP-92 NSCLC): 1.21 µM | TGI (HOP-92 NSCLC): 2.91 µM | GI50 (HS 578T breast): 2.99 µM | TGI (HS 578T breast): 36.6 µM | GI50 (HT29 colon): 2.88 µM | TGI (HT29 colon): 10.3 µM | GI50 (IGROV1 ovarian): 0.183 µM | TGI (IGROV1 ovarian): 0.391 µM | GI50 (K-562 leukemia): 3.95 µM | TGI (K-562 leukemia): > 100 µM | GI50 (KM12 colon): 9.09 µM | TGI (KM12 colon): > 100 µM | GI50 (M14 melanoma): 4.22 µM | TGI (M14 melanoma): 90.6 µM | GI50 (MALME-3M melanoma): 1.68 µM | TGI (MALME-3M melanoma): 3.37 µM | GI50 (MCF7 breast): 3.41 µM | TGI (MCF7 breast): 18.3 µM | GI50 (MDA-MB-231 breast): 1.56 µM | TGI (MDA-MB-231 breast): 3.98 µM | GI50 (MDA-MB-435): 16 µM | TGI (MDA-MB-435): 67 µM | GI50 (MOLT-4 leukemia): 5.32 µM | TGI (MOLT-4 leukemia): 83.8 µM | GI50 (NCI-H226 lung): 11.4 µM | TGI (NCI-H226 lung): > 100 µM | GI50 (NCI-H23 lung): 0.469 µM | TGI (NCI-H23 lung): 1.87 µM | GI50 (NCI-H460 lung): 4.65 µM | TGI (NCI-H460 lung): > 100 µM | GI50 (NCI-H522 lung): 1.83 µM | TGI (NCI-H522 lung): 3.85 µM | GI50 (NCI/ADR-RES ovarian): 6.11 µM | TGI (NCI/ADR-RES ovarian): > 100 µM | GI50 (OVCAR-4 ovarian): 23.5 µM | TGI (OVCAR-4 ovarian): > 100 µM | GI50 (OVCAR-5 ovarian): 4.77 µM | TGI (OVCAR-5 ovarian): > 100 µM | GI50 (OVCAR-8 ovarian): 3.06 µM | TGI (OVCAR-8 ovarian): > 100 µM | GI50 (PC-3 prostate): 3.79 µM | TGI (PC-3 prostate): > 100 µM | GI50 (RXF 393 renal): 2.66 µM | TGI (RXF 393 renal): 9.49 µM | GI50 (SF-268 CNS): 2.59 µM | TGI (SF-268 CNS): 8.27 µM | GI50 (SF-539 CNS): 1.75 µM | TGI (SF-539 CNS): 3.28 µM | GI50 (SK-MEL-2 melanoma): 24.8 µM | TGI (SK-MEL-2 melanoma): > 100 µM | GI50 (SK-MEL-28 melanoma): 25.1 µM | TGI (SK-MEL-28 melanoma): > 100 µM | GI50 (SK-MEL-5 melanoma): 7.98 µM | TGI (SK-MEL-5 melanoma): 24.2 µM | GI50 (SK-OV-3 ovarian): 2.57 µM | TGI (SK-OV-3 ovarian): 7.41 µM | GI50 (SN12C renal): 3.94 µM | TGI (SN12C renal): > 100 µM | GI50 (SNB-19 CNS): 4.33 µM | TGI (SNB-19 CNS): > 100 µM | GI50 (SNB-75 CNS): 1.05 µM | TGI (SNB-75 CNS): 2.24 µM | GI50 (SR leukemia): 1.3 µM | TGI (SR leukemia): 8.24 µM | GI50 (SW-620 colon): 8 µM | TGI (SW-620 colon): 27.8 µM | GI50 (T-47D breast): 3.88 µM | TGI (T-47D breast): > 100 µM | GI50 (TK-10 renal): > 100 µM | TGI (TK-10 renal): > 100 µM | GI50 (U251 CNS): 2.3 µM | TGI (U251 CNS): 6 µM | GI50 (UACC-257 melanoma): 32.1 µM | TGI (UACC-257 melanoma): > 100 µM | GI50 (UACC-62 melanoma): 9.74 µM | TGI (UACC-62 melanoma): > 100 µM | GI50 (UO-31 renal): 0.136 µM | TGI (UO-31 renal): 0.306 µM
